In brackets after ≈: the same amount, converted by molar mass. No end group written: not given here.
Columns and labels:
[1] = tested on: Candida albicans; assay: microbe, parasite or virus in culture; details: for MIC: Candida albicans, ATCC90028, 48 h, pH 7, read-out: Minimum inhibitory concentration, Candida albicans; for Minimum inhibitory concentration, Candida albicans: ATCC 90028, RPMI 1640 pH 7.0, 37 °C, 48 h, start 2.5 x 10^3 cells, 256-0.5 µM, mean ± SD of 3 biological repetitions (SD 0 not displayed), no cells seen by optical microscopy, N/A = no antimicrobial activity observed
Protocol: (§1) The susceptibility test of microorganisms was performed to evaluate the inhibitory activity of the IAPs. Protocols M7-A10[50], M27-A3[51] and M38-A2[52] from Clinical & Laboratory Standards Institute (CLSI) were used for bacteria, yeasts and filamentous fungi tests, respectively. Briefly, different concentration of IAPs (256-0.5 µM) were tested against 16 microorganisms, in a final volume of 100 µL. Media conditions, final cell concentration and incubation conditions are presented in Supplementary Material 07, Table S5. Three biological repetitions, with 2 technical replicates each, were performed for each test, on polystyrene flat-bottom 96 wells microplates. The minimum inhibitory concentration (MIC) was defined as the concentration that no cells/hyphae were detected when visualized by optical microscopy.
(§2) Supplementary Material 07, Table S5
(§3) Table S5. Microorganisms and growth conditions.

[2] = tested on: Cryptococcus neoformans; assay: microbe, parasite or virus in culture; details: for MIC: Cryptococcus neoformans, ATCC28957, 72 h, pH 7, read-out: Minimum inhibitory concentration, Cryptococcus neoformans; for Minimum inhibitory concentration, Cryptococcus neoformans: ATCC 28957, RPMI 1640 pH 7.0, 37 °C, 72 h, start 2.5 x 10^3 cells, 256-0.5 µM, mean ± SD of 3 biological repetitions (SD 0 not displayed), N/A = no antimicrobial activity observed
Protocol: as §1, §2, §3

[3] = tested on: Bacillus subtilis; assay: microbe, parasite or virus in culture; details: ATCC 23857; Mueller-Hinton; 37 °C, 24 h; start 5.0 x 10^5 cells; 256-0.5 µM; mean ± SD of 3 biological repetitions (SD 0 not displayed); N/A = no antimicrobial activity observed
Protocol: as §1, §2, §3

[4] = tested on: Erwinia carotovora; assay: microbe, parasite or virus in culture; details: Mueller-Hinton; 28 °C, 24 h; start 5.0 x 10^5 cells; 256-0.5 µM; mean ± SD of 3 biological repetitions (SD 0 not displayed); N/A = no antimicrobial activity observed
Protocol: as §1, §2, §3

[5] = tested on: Escherichia coli; assay: microbe, parasite or virus in culture; details: ATCC 25922; Mueller-Hinton; 37 °C, 24 h; start 5.0 x 10^5 cells; 256-0.5 µM; mean ± SD of 3 biological repetitions (SD 0 not displayed); N/A = no antimicrobial activity observed
Protocol: as §1, §2, §3

[6] = tested on: Pseudomonas syringae pv. tabaci; assay: microbe, parasite or virus in culture; details: Mueller-Hinton; 28 °C, 24 h; start 5.0 x 10^5 cells; 256-0.5 µM; mean ± SD of 3 biological repetitions (SD 0 not displayed); N/A = no antimicrobial activity observed
Protocol: as §1, §2, §3

[7] = tested on: Staphylococcus aureus; assay: microbe, parasite or virus in culture; details: ATCC 25923; Mueller-Hinton; 37 °C, 24 h; start 5.0 x 10^5 cells; 256-0.5 µM; mean ± SD of 3 biological repetitions (SD 0 not displayed); N/A = no antimicrobial activity observed
Protocol: as §1, §2, §3

[8] = tested on: Xanthomonas campestris; assay: microbe, parasite or virus in culture; details: pv. citri; Mueller-Hinton; 28 °C, 24 h; start 5.0 x 10^5 cells; 256-0.5 µM; mean ± SD of 3 biological repetitions (SD 0 not displayed); N/A = no antimicrobial activity observed
Protocol: as §1, §2, §3

[9] = tested on: Escherichia coli; assay: Microbicidal activity (minimal killing concentration), plating on agar; format: cell-based, Escherichia coli ATCC 25922; details: 10 µL of MIC and raising concentrations up to 256 µM plated on Mueller-Hinton agar; 37 °C, 24 h; no growth; mean ± SD, 3 biological replicates
Protocol: (§4) The microbicidal activity of the IAPS was also evaluated. […] YPD agar and Mueller-Hinton agar were used for fungi/yeasts and bacteria, respectively. Meanwhile, susceptibility microplates were incubated again to evaluate if there would be any growing after a longer period. For both approaches, the minimal killing concentration (MKC) was defined as the concentration that no growth was observed after incubation. Three biological replicates were performed for each test.
as §2, §3
(§5) Microorganisms Incubation Incubation Starting cell Growth Medium

[10] = tested on: Bacillus subtilis; assay: as above; format: cell-based, Bacillus subtilis ATCC 23857; details: 10 µL of MIC and raising concentrations up to 256 µM plated on Mueller-Hinton agar; 37 °C, 24 h; no growth; mean ± SD, 3 biological replicates
Protocol: as §4, §2, §3, §5

[11] = tested on: Staphylococcus aureus; assay: as above; format: cell-based, Staphylococcus aureus ATCC 25923; details: 10 µL of MIC and raising concentrations up to 256 µM plated on Mueller-Hinton agar; 37 °C, 24 h; no growth; mean ± SD, 3 biological replicates
Protocol: as §4, §2, §3, §5
(§6) Temperature (°C) Time (h) concentration
(§7) Erwinia carotovora 28 24 5.0 x 10 5 Mueller -Hinton
(§8) Xanthomonas campestris pv. citri 28 24 5.0 x 10 5 Mueller -Hinton
(§9) Pseudomonas syringae pv. tabaci 28 24 5.0 x 10 5 Mueller -Hinton

[12] = tested on: Erwinia carotovora; assay: as above; format: cell-based; details: 10 µL of MIC and raising concentrations up to 256 µM plated on Mueller-Hinton agar; 28 °C, 24 h; no growth; mean ± SD, 3 biological replicates
Protocol: as §4, §2, §3, §5, §6, §7, §8, §9

[13] = tested on: Pseudomonas syringae pv. tabaci; assay: as above; format: cell-based; details: 10 µL of MIC and raising concentrations up to 256 µM plated on Mueller-Hinton agar; 28 °C, 24 h; no growth; mean ± SD, 3 biological replicates
Protocol: as §4, §2, §3, §5, §6, §7, §8, §9

[14] = tested on: Xanthomonas campestris; assay: as above; format: cell-based, Xanthomonas campestris pv. citri; details: 10 µL of MIC and raising concentrations up to 256 µM plated on Mueller-Hinton agar; 28 °C, 24 h; no growth; mean ± SD, 3 biological replicates
Protocol: as §4, §2, §3, §5, §6, §7, §8, §9

[15] = tested on: Bacillus cereus; assay: microbe, parasite or virus in culture; details: ATCC 14579; Mueller-Hinton; 37 °C, 24 h; start 5.0 x 10^5 cells; 256-0.5 µM; mean ± SD of 3 biological repetitions (SD 0 not displayed); N/A = no antimicrobial activity observed
Protocol: as §1, §2, §3

[16] = tested on: Pseudomonas aeruginosa; assay: microbe, parasite or virus in culture; details: ATCC 27853; Mueller-Hinton; 37 °C, 24 h; start 5.0 x 10^5 cells; 256-0.5 µM; mean ± SD of 3 biological repetitions (SD 0 not displayed); N/A = no antimicrobial activity observed
Protocol: as §1, §2, §3

[17] = tested on: human red blood cells; assay: Cytotoxicity: hemolysis of human red blood cells; format: cell-based
Protocol: The cytotoxicity of the selected IAPS was performed using human red blood cells in strict accordance with relevant guidelines and regulations (Ethical committee – UnB # 1.939.989). Different concentrations of IAPs (128 µM–0.5 µM) were incubated with a final concentration of 2.5 × 10^5 red blood cells.mL^−1. Briefly, 100 µL of red blood cells was incubated with 100 µL of different concentrations of each IAP, prepared in PBS, for 30 minutes at 37 °C, with constant shaking at 120 rpm. PBS and Triton X-100 0.1% (v/v) were used as negative and positive controls, respectively. After incubation, the solution was centrifuged at 900 × g for five minutes followed by transferring 50 µL of the supernatant to flat-bottom polystyrene 96-well micro plates containing 50 µL of PBS. Microplate reading was performed at a BioTek Multireader, using a wavelength of 540 nm. All tests were performed in 3 biological replicates, composed of 3 biological repetitions each. The obtained data was subtracted by the negative control and relative to the positive control, defined as 100% lysis.

[18] = tested on: Fusarium oxysporum; assay: microbe, parasite or virus in culture; details: Fusarium oxysporum, 48 h, pH 7, read-out: Minimum inhibitory concentration, Fusarium oxysporum
Protocol: as §1, §2, §3

[19] = tested on: Ramularia areola; assay: microbe, parasite or virus in culture; details: Ramulariopsis gossypii, 120 h, pH 7, read-out: Minimum inhibitory concentration, Ramularia areola
Protocol: as §1, §2, §3

[20] = tested on: Trichoderma asperellum; assay: microbe, parasite or virus in culture; details: Trichoderma asperellum, 48 h, pH 7, read-out: Minimum inhibitory concentration, Trichoderma asperellum
Protocol: as §1, §2, §3

Compound | MIC [1] | MIC [2] | Minimum inhibitory concentration, Bacillus subtilis [3] | Minimum inhibitory concentration, Escherichia coli [5] | Minimum inhibitory concentration, Staphylococcus aureus [7] | Minimum inhibitory concentration, Bacillus cereus [15] | Minimum inhibitory concentration, Candida albicans [1] | Minimum inhibitory concentration, Cryptococcus neoformans [2] | Minimum inhibitory concentration, Pseudomonas aeruginosa [16] | Hemolytic activity (% ± SD) at 1 µM [17] | Hemolytic activity (% ± SD) at 2 µM [17] | Hemolytic activity (% ± SD) at 4 µM [17] | Hemolytic activity (% ± SD) at 8 µM [17] | Hemolytic activity (% ± SD) at 16 µM [17] | Hemolytic activity (% ± SD) at 32 µM [17] | Hemolytic activity (% ± SD) at 64 µM [17] | Hemolytic activity (% ± SD) at 128 µM [17] | Hemolytic activity of human red blood cells (%) SC50 [17] | other results
OC(Cn1cncn1)(Cn1cncn1)c1ccc(F)cc1F [Fluconazole, reference compound] | 1.63 µM (≈ 0.499 µg/mL) | 1.63 µM (≈ 0.499 µg/mL) |  |  |  |  |  |  |  |  |  |  |  |  |  |  |  |  | 
CC1(C)S[C@@H]2[C@H](NC(=O)[C@H](N)c3ccccc3)C(=O)N2[C@H]1C(=O)O [Ampicilin] |  |  | 0.08 µM (≈ 0.028 µg/mL) | 10.77 µM (≈ 3.76 µg/mL) | 5.38 µM (≈ 1.88 µg/mL) |  |  |  |  |  |  |  |  |  |  |  |  |  | Minimum inhibitory concentration, Erwinia carotovora [4]: 1.35 µM (≈ 0.472 µg/mL); Minimum inhibitory concentration, Pseudomonas syringae pv. tabaci [6]: 2.69 µM (≈ 0.94 µg/mL); Minimum inhibitory concentration, Xanthomonas campestris [8]: 1.35 µM (≈ 0.472 µg/mL); Minimum microbicidal concentration, Escherichia coli [9]: 10.77 ± 0.0 µM; Minimum microbicidal concentration, Bacillus subtilis [10]: 0.08 ± 0.0 µM; Minimum microbicidal concentration, Staphylococcus aureus [11]: 10.77 ± 0.0 µM; Minimum microbicidal concentration, Erwinia carotovora [12]: 2.70 ± 0.0 µM; Minimum microbicidal concentration, Pseudomonas syringae pv. tabaci [13]: 10.77 ± 0.0 µM; Minimum microbicidal concentration, Xanthomonas campestris [14]: 5.38 ± 0.0 µM
GFKLGRKLVKVFKWII-NH2 [Gr01] |  |  | 1.0 µM | 0.5 µM | 0.83 ± 0.29 µM | 1.0 µM | 1.0 µM | 1.0 µM | 3.33 ± 1.15 µM | 0.09 ± 0.01% | 0.00 ± 0.00% | 0.30 ± 0.15% | 1.96 ± 0.89% | 3.82 ± 1.28% | 11.33 ± 1.66% | 33.9 9 ± 5.46% | 51.72 ± 7.33% | 64 µM | Concentration that induced 50% hemolysis ([17]; red cells of human): 64 µM
C[C@@H]1[C@H](O)[C@@H](C)/C=C/C=C/C=C/C=C/C=C/C=C/C=C/[C@H](O[C@@H]2O[C@H](C)[C@@H](O)[C@H](N)[C@@H]2O)C[C@@H]2O[C@](O)(C[C@@H](O)C[C@@H](O)[C@H](O)CC[C@@H](O)C[C@@H](O)CC(=O)O[C@H]1C)C[C@H](O)[C@H]2C(=O)O [Amphotericin B] | 0.27 µM (≈ 0.25 µg/mL) | 0.13 µM (≈ 0.12 µg/mL) |  |  |  |  |  |  |  |  |  |  |  |  |  |  |  |  | MIC [18]: 0.54 µM (≈ 0.499 µg/mL); MIC [19]: 0.54 µM (≈ 0.499 µg/mL); MIC [20]: 2.16 µM (≈ 2 µg/mL)
GSLHGFMYRYLKNMVLNLF-NH2 [Cs01] |  |  | 8.0 µM | 32.0 µM | 4.0 µM | 64.0 µM | 2.67 ± 1.15 µM | 8.0 µM | 32.0 µM | 0.10 ± 0.04% | 0.05 ± 0.03% | 0.01 ± 0.00% | 0.09 ± 0.01% | 0.27 ± 0.09% | 0.31 ± 0.15% | 2.18 ± 1.62% | 8.01 ± 2.16% | >128 µM | 
GSLHGFMYKYLKTLVLRLY-NH2 [Zm01] |  |  | 8.0 µM | 13.33 ± 4.61 µM | 16 µM | 64.0 µM | 6.67 ± 2.31 µM | 4.0 µM | 16.0 µM | 0.00 ± 0.00% | 0.02 ± 0.00% | 0.00 ± 0.00% | 0.00 ± 0.00% | 0.66 ± 0.14% | 2.45 ± 1.03% | 6.56 ± 1.87% | 15.72 ± 3.48% | >128 µM | 

— paper PMC5643462, “Encrypted Antimicrobial Peptides from Plant Proteins” (Scientific Reports, 2017)
